Measured values: paper PMC9518264, “Design and synthesis of novel quinazolinone-based derivatives as EGFR inhibitors with antitumor activity” (Journal of Enzyme Inhibition and Medicinal Chemistry, 2022)

Columns and labels:
K-562 = assay: cells; assay type: cell-based; conditions: for inhibition at 10 µM: K562, read-out: growth inhibition % (GI%)
RPMI-8226 = assay: cells; assay type: cell-based; conditions: for inhibition at 10 µM: RPMI-8226, read-out: growth inhibition % (GI%)
SR = assay: cells; assay type: cell-based; conditions: for inhibition at 10 µM: read-out: growth inhibition % (GI%)
HT29 = assay: cells; assay type: cell-based; conditions: for inhibition at 10 µM: HT-29, read-out: growth inhibition % (GI%)
SW-620 = assay: cells; assay type: cell-based; conditions: for inhibition at 10 µM: SW-620, read-out: growth inhibition % (GI%)
M14 = assay: cells; assay type: cell-based; conditions: for inhibition at 10 µM: M14, read-out: growth inhibition % (GI%)
MDA-MB-435 = assay: cells; assay type: cell-based; conditions: for inhibition at 10 µM: MDA-MB-435, read-out: growth inhibition % (GI%)
SK-MEL-28 = assay: cells; assay type: cell-based; conditions: for inhibition at 10 µM: SK-MEL-28, read-out: growth inhibition % (GI%)
UACC-62 = assay: cells; assay type: cell-based; conditions: for inhibition at 10 µM: UACC-62, read-out: growth inhibition % (GI%)
CAKI-1 = assay: cells; assay type: cell-based; conditions: for inhibition at 10 µM: CAKI-1, read-out: growth inhibition % (GI%)
RXF 393 = assay: cells; assay type: cell-based; conditions: for inhibition at 10 µM: RXF 393, read-out: growth inhibition % (GI%)
UO-31 = assay: cells; assay type: cell-based; conditions: for inhibition at 10 µM: UO-31, read-out: growth inhibition % (GI%)
MDA-MB-231/ATCC = assay: NCI 60 cell line antiproliferative screening (SRB), Breast cancer; assay type: cell-based; conditions: for inhibition at 10 µM: MDA-MB-231, read-out: growth inhibition % (GI%)
HS 578T = assay: cells; assay type: cell-based; conditions: for inhibition at 10 µM: read-out: growth inhibition % (GI%)
EGFR = EGFR (Homo sapiens, UniProt P00533); assay: In vitro EGFR kinase inhibitory assay (Kinase-Glo Max luminescence kit); assay type: biochemical
HS 578T cells [1] = assay: Annexin V/PI dual staining apoptosis assay; assay type: cell-based, human
caspase-3 = assay: Caspase-3 activation (ELISA) in breast HS 578T cancer cell line; assay type: cell-based, human
Experimental: Apoptosis is triggered by the activation of caspases, particularly caspase-3, which is an […] caspase responsible for apoptosis. Therefore, the induction of apoptosis by compound 6d was examined by the evaluation of caspase-3 activation in breast HS 578T cancer cell line. The effect of erlotinib as well as untreated cell line was used as positive and negative control, respectively. […] . […]
incubated for 15 minutes in the dark at room temperature. FacsCalibur was used to assess cell fluorescence after incubation (BD Biosciences, USA). The results were represented using dot-plot graphs.
1.1.5. Caspase-3 enzyme assay
The level of the apoptotic marker caspase-3 was measured using Invitrogen ELISA Kit Catalog # KHO1091. The procedure of the used kit was performed according to the manufacturer’s instructions. Let all components to reach room temperature before use. Gently combine all liquid reagents prior to use. Add 100 μL of the standard diluent buffer to the zero standard wells. Add 100 μL of standards and controls or diluted samples to the appropriate microtiter wells. Incubate for 2 h at room temperature. Pipette 100 μL of Caspase-3 (Active) detection antibody solution into each well. […] Read the absorbance of each well at 450 nm. Read the plate within 2 h after adding the stop solution. […] Read the concentrations for unknown samples and controls from the standard curve.

HS 578T cells [2] = assay: Cell cycle analysis by DNA flow cytometry (propidium iodide)
Experimental: Flow cytometry was used to analyse the cell cycle using ab139418 propidium iodide flow cytometry kit/BD (Abcam, Cambridge, UK), as directed by the manufacturer guidelines.
The cells were washed twice with ice-cold phosphate buffer saline (PBS) and collected by centrifugation.
(v/v) ethanol, washed with PBS, and re-suspended with 0.1 mg/mL RNase to digest cellular RNA and thus minimize stained RNA in the background. The cells were next stained with PI, a fluorescent molecule that may bind to nucleic acid, at a concentration of 40 mg/mL. In cells, PI attaches to DNA in proportion to its amount. Because the DNA content of cells at different stages of the cell cycle differs, the fluorescence intensity can be used to assess the stage of cell growth. FacsCalibur (BD Biosciences, USA) was used to estimate cell fluorescence, which was then examined using Cell-Quest software (Becton Dickinson).

[3] = 24 h at 2.17 µM, vs untreated control

Sequence of EGFR (P00533 669-1210): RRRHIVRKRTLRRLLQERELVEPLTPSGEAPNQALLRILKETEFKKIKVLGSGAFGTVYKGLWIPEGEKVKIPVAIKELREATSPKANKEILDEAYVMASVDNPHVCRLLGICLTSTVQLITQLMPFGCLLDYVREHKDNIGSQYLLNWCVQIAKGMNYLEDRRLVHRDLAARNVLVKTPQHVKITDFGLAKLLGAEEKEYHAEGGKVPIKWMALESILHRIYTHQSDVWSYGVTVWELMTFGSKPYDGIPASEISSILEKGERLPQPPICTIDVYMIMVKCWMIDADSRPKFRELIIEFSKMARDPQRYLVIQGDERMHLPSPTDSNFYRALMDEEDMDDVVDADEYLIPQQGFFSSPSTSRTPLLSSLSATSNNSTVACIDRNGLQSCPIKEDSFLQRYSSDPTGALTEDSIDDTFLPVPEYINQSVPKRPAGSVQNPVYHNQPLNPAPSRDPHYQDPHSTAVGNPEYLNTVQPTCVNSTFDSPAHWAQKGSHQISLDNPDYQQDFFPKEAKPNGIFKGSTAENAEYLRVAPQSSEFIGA

## O=C(CSc1nc2ccccc2c(=O)n1-c1ccccc1)NN=Cc1ccc(Oc2ccc(Br)cc2)cc1 [6b, N'-(4–(4-bromophenoxy)benzylidene)-2-((4-oxo-3-phenyl-3,4-dihydroquinazolin-2-yl)thio) acetohydrazide]
K-562; Homo sapiens
  inhibition at 10 µM: 37.5%
RPMI-8226; Homo sapiens
  inhibition at 10 µM: 31.7%
SR; Homo sapiens
  inhibition at 10 µM: 26.6%
HT29; Homo sapiens
  inhibition at 10 µM: 61.8%
SW-620; Homo sapiens
  inhibition at 10 µM: 70.4%
M14; Homo sapiens
  inhibition at 10 µM: 43.7%
MDA-MB-435; Homo sapiens
  inhibition at 10 µM: 19.2%
SK-MEL-28; Homo sapiens
  inhibition at 10 µM: 29.1%
UACC-62; Homo sapiens
  inhibition at 10 µM: 31.2%
CAKI-1; Homo sapiens
  inhibition at 10 µM: 29.2%
RXF 393; Homo sapiens
  inhibition at 10 µM: 37.8%
UO-31; Homo sapiens
  inhibition at 10 µM: < 15%
MDA-MB-231/ATCC; Homo sapiens
  inhibition at 10 µM: 49.1%
HS 578T; Homo sapiens, Hs-578T
  inhibition at 10 µM: 39.2%
EGFR
  IC50: 0.487 ± 0.03 µM

## O=C(CSc1nc2ccccc2c(=O)n1-c1ccc(Cl)cc1)NN=Cc1ccc(Oc2ccc(Cl)cc2)cc1 [6d, N'-(4–(4-chlorophenoxy)benzylidene)-2-((3–(4-chlorophenyl)-4-oxo-3,4-dihydroquinazolin-2-yl)thio)acetohydrazide]
K-562; Homo sapiens, K562
  GI50: 4.15 µM
K-562; Homo sapiens
  inhibition at 10 µM: 77%
K-562; Homo sapiens, K562, K-562, 5 doses, read-out: LC50 (the source's name)
  CC50: > 100 µM
K-562; K-562, 5 doses
  TGI: 20.2 µM
RPMI-8226; Homo sapiens, RPMI-8226
  GI50: 2.98 µM
RPMI-8226; Homo sapiens
  inhibition at 10 µM: 75.3%
RPMI-8226; Homo sapiens, RPMI-8226, 5 doses, read-out: LC50 (the source's name)
  CC50: > 100 µM
RPMI-8226; RPMI-8226, 5 doses
  TGI: 15.8 µM
SR; 5 doses
  TGI: 6.86 µM
SR; Homo sapiens
  GI50: 1.84 µM
  inhibition at 10 µM: 67.1%
SR; Homo sapiens, 5 doses, read-out: LC50 (the source's name)
  CC50: 31.9 µM
HT29; HT29, 5 doses
  TGI: 11.1 µM
HT29; Homo sapiens, HT-29
  GI50: 2.14 µM
HT29; Homo sapiens
  inhibition at 10 µM: 98.2%
HT29; Homo sapiens, HT-29, HT29, 5 doses
  LC50 (concentration giving 50% net cell kill): > 100 µM
SW-620; Homo sapiens, SW-620
  GI50: 1.81 µM
SW-620; Homo sapiens
  inhibition at 10 µM: 97.4%
SW-620; Homo sapiens, SW-620, 5 doses, read-out: LC50 (the source's name)
  CC50: 42.4 µM
SW-620; SW-620, 5 doses
  TGI: 7.84 µM
M14; Homo sapiens, M14
  GI50: 1.58 µM
M14; Homo sapiens
  inhibition at 10 µM: > 100%
M14; Homo sapiens, M14, 5 doses, read-out: LC50 (the source's name)
  CC50: 7.58 µM
M14; M14, 5 doses
  TGI: 3.47 µM
MDA-MB-435; Homo sapiens, MDA-MB-435
  GI50: 1.93 µM
MDA-MB-435; Homo sapiens
  inhibition at 10 µM: 75%
MDA-MB-435; Homo sapiens, MDA-MB-435, 5 doses, read-out: LC50 (the source's name)
  CC50: 13 µM
MDA-MB-435; MDA-MB-435, 5 doses
  TGI: 4.56 µM
SK-MEL-28; Homo sapiens, SK-MEL-28
  GI50: 1.51 µM
SK-MEL-28; Homo sapiens
  inhibition at 10 µM: 96.8%
SK-MEL-28; Homo sapiens, SK-MEL-28, 5 doses, read-out: LC50 (the source's name)
  CC50: 6.01 µM
SK-MEL-28; SK-MEL-28, 5 doses
  TGI: 3.01 µM
UACC-62; Homo sapiens, UACC-62
  GI50: 1.59 µM
UACC-62; Homo sapiens
  inhibition at 10 µM: 99.6%
UACC-62; Homo sapiens, UACC-62, 5 doses, read-out: LC50 (the source's name)
  CC50: 6.38 µM
UACC-62; UACC-62, 5 doses
  TGI: 3.18 µM
CAKI-1; CAKI-1, 5 doses
  TGI: 12.0 µM
CAKI-1; Homo sapiens, CAKI-1
  GI50: 3.06 µM
CAKI-1; Homo sapiens
  inhibition at 10 µM: 67%
CAKI-1; Homo sapiens, CAKI-1, 5 doses, read-out: LC50 (the source's name)
  CC50: 35.4 µM
RXF 393; Homo sapiens, RXF 393
  GI50: 1.7 µM
RXF 393; Homo sapiens
  inhibition at 10 µM: > 100%
RXF 393; Homo sapiens, RXF 393, 5 doses, read-out: LC50 (the source's name)
  CC50: 5.81 µM
RXF 393; RXF 393, 5 doses
  TGI: 3.14 µM
UO-31; Homo sapiens, UO-31
  GI50: 7.47 µM
UO-31; Homo sapiens
  inhibition at 10 µM: < 15%
UO-31; Homo sapiens, UO-31, 5 doses, read-out: LC50 (the source's name)
  CC50: 47.1 µM
UO-31; UO-31, 5 doses
  TGI: 21.1 µM
MDA-MB-231/ATCC; Homo sapiens, MDA-MB-231
  GI50: 1.79 µM
MDA-MB-231/ATCC; Homo sapiens
  inhibition at 10 µM: 69.6%
MDA-MB-231/ATCC; Homo sapiens, MDA-MB-231/ATCC, 5 doses, read-out: LC50 (the source's name)
  CC50: 8.51 µM
MDA-MB-231/ATCC; MDA-MB-231/ATCC, 5 doses
  TGI: 3.9 µM
HS 578T; HS 578T, 5 doses
  TGI: 6.36 µM
HS 578T; Homo sapiens, Hs-578T
  GI50: 2.17 µM
  inhibition at 10 µM: 78.6%
HS 578T; Homo sapiens, HS 578T, 5 doses, read-out: LC50 (the source's name)
  CC50: > 100 µM
EGFR
  IC50: 0.069 ± 0.004 µM
HS 578T cells [1]
  increase in total apoptosis compared to the control: 16.74 fold
HS 578T cells [1]; IC50 concentration, 24 h
  Apoptosis Early: 19.24%
  Apoptosis Late: 13.45%
  Apoptosis Total: 39.02%
  Necrosis: 6.33%
caspase-3
  increase of caspase-3 level compared to negative control: 10.75 fold
HS 578T cells [2]
  phase of cell cycle arrest: G1/S phase
HS 578T cells [2]; 24 h at 2.17 µM, vs control
  increase of cell population in the pre-G1 phase: 16.74 fold
HS 578T cells [2]; [3]
  decrease in the cell population at the G2/M phase: 52%
  increase of proportion of cells in G0-G1 phase: 1.12 fold
  increase of proportion of cells in S phase: 1.12 fold
